Read-outs that look alike come from different tables or passages of the source. One block for each compound: values may come before it. Positions of bridges follow the written chain, without caps; N, C: chain ends. Residues, ends and D or L forms follow the SMILES beside them.
Columns and labels:
Format in all cases: binding
IgG4 = IgG4 (Homo sapiens, UniProt P01861); parameters: all human subtypes derived from myeloma patients; purchased Calbiochem 400126; host or cells: myeloma patients; details: for % IgG Capture - Batch Binding, Human IgG4: Table 9, immobilized peptide, 5.0 mg/ml resin load; for Human IgG4 elu pH 8.5 (% of Total Load): elution 0.1 M sodium bicarbonate buffer; for hIgG4 elution pH 2.5 (% of Total Load) / hIgG4 elution pH 3.0 (% of Total Load) / hIgG4 elution pH 3.5 (% of Total Load) / hIgG4 elution pH 4.5 (% of Total Load) / hIgG4 elution pH 5.5 (% of Total Load) / hIgG4 elution pH 9.0 (% of Total Load) / hIgG4 elution pH 9.5 (% of Total Load): Table 13
IgG4, sequence (P01861 1-327 isoform P01861-1): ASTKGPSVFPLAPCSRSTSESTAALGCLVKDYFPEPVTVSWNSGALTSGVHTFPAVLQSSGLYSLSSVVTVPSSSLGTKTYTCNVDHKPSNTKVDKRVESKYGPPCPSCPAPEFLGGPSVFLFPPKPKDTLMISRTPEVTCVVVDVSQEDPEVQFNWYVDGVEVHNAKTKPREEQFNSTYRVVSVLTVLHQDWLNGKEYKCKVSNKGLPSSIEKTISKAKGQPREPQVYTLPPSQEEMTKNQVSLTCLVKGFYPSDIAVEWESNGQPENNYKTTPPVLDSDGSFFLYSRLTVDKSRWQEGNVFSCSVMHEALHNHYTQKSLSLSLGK
Procedure, shortened: (§1)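 Read-out is A280 of unbound IgG (1.4 mg/ml extinction coefficient), with percent bound derived against non-filtered or negative controls. Targets were incubated with immobilized peptides in PBST or TBST for 1-1.5 h at room temperature. Hydrolyzed Sepharose and immobilized Protein A serve as negative and positive controls.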

mouse IgG = system: mouse IgG
Procedure, shortened: (§2)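 Steps: dilute IgG in PBST or TBST; incubate with immobilized peptide 1-1.5 h, RT; collect unbound by centrifugation; measure A280; wash three times; elute with 0.1 M sodium bicarbonate pH 8.5 and/or 0.1 M sodium citrate pH 4.0 for 30-60 min and quantitate.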

human IgG2 = target: T1, human IgG2 (Homo sapiens, UniProt P01859); details: for Human IgG2 elu pH 8.5 (% of Total Load): elution 0.1 M sodium bicarbonate buffer; for Human IgG2 elu pH 4.0 (% of Total Load): elution 0.1 M sodium citrate buffer
T1 construct: all human subtypes derived from myeloma patients; purchased Calbiochem 400122; host or cells: myeloma patients
T1 sequence (P01859 1-326 isoform P01859-1): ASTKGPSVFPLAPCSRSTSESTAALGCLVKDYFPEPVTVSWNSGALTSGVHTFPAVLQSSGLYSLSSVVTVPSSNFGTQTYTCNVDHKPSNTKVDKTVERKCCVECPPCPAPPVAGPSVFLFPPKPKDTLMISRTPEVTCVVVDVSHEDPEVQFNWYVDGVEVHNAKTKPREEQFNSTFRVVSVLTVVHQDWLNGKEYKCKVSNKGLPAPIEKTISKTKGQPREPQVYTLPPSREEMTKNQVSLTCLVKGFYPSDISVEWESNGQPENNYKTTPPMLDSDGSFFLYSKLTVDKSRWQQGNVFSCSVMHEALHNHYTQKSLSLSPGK
Procedure, shortened: as §1

human IgG1 = target: T2, human IgG1 (Homo sapiens, UniProt P01857); details: for % IgG Capture - Batch Binding, Human IgG1: Table 9, immobilized peptide, 5.0 mg/ml resin load; for Human IgG1 elu pH 8.5 (% of Total Load): elution 0.1 M sodium bicarbonate buffer; for Human IgG1 elu pH 4.0 (% of Total Load): elution 0.1 M sodium citrate buffer; for hIgG1 elution pH 2.5 (% of Total Load) / hIgG1 elution pH 3.0 (% of Total Load) / hIgG1 elution pH 3.5 (% of Total Load) / hIgG1 elution pH 4.5 (% of Total Load) / hIgG1 elution pH 5.5 (% of Total Load) / hIgG1 elution pH 9.0 (% of Total Load) / hIgG1 elution pH 9.5 (% of Total Load): Table 13
T2 construct: all human subtypes derived from myeloma patients; purchased Calbiochem 400120; host or cells: myeloma patients
T2 sequence (P01857 1-330 isoform P01857-1): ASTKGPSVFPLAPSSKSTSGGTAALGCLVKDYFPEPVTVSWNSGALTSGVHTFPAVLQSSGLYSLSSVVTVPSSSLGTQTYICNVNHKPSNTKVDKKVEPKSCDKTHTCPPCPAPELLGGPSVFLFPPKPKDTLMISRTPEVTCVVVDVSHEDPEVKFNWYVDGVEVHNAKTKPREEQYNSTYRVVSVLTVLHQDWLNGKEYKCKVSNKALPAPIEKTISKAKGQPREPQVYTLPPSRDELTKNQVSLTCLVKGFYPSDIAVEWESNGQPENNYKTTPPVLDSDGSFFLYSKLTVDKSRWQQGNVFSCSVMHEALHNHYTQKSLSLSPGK
Procedure, shortened: as §1

goat IgG = system: goat IgG
Procedure, shortened: as §2

human IgG = system: human IgG
Procedure, shortened: as §2

bovine IgG = system: bovine IgG
Procedure, shortened: as §2

IgG3 = IgG3 (Homo sapiens, UniProt P01860); parameters: all human subtypes derived from myeloma patients; purchased Calbiochem 400124; host or cells: myeloma patients; details: for % IgG Capture - Batch Binding, Human IgG3: Table 9, immobilized peptide, 5.0 mg/ml resin load; for Human IgG3 elu pH 4.0 (% of Total Load): elution 0.1 M sodium citrate buffer
IgG3, sequence (P01860 1-377 isoform P01860-1): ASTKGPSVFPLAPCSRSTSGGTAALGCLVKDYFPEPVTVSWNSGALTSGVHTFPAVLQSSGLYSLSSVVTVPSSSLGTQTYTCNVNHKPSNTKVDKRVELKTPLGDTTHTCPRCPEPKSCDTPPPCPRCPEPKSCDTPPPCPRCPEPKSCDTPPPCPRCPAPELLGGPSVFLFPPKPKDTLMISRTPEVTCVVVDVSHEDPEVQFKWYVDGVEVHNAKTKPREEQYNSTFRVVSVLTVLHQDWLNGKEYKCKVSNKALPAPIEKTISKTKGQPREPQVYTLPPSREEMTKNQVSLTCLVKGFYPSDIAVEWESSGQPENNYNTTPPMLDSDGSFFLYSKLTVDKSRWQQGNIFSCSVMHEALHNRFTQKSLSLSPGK
Procedure, shortened: as §1

[1] = Table 14, average ligand density […] μM/ml

% IgG Capture - Batch Binding, Human IgG4 (IgG4): 82% | Human IgG4 bdg % (% of Total Load) (IgG4; Table 10, batch binding): 82% | Human IgG4 elu pH 8.5 (% of Total Load) (IgG4; Table 10): 66% | Human IgG4 elu pH 4.0 (% of Total Load) (IgG4; Table 10, elution 0.1 M sodium citrate buffer, pH 4.0): 54% | hIgG4 elution pH 2.5 (% of Total Load) (IgG4): 42% | hIgG4 elution pH 3.0 (% of Total Load) (IgG4): 43% | hIgG4 elution pH 3.5 (% of Total Load) (IgG4): 30% | hIgG4 elution pH 4.5 (% of Total Load) (IgG4): 10% | hIgG4 elution pH 5.5 (% of Total Load) (IgG4): 4% | hIgG4 elution pH 9.0 (% of Total Load) (IgG4): 53% | hIgG4 elution pH 9.5 (% of Total Load) (IgG4): 59% | % IgG Capture - Batch Binding, Mouse IgG (mouse IgG): 0% | % IgG Capture - Batch Binding, Human IgG2 (human IgG2; Table 9, immobilized peptide, 5.0 mg/ml resin load): 92% | Human IgG2 bdg % (% of Total Load) (human IgG2; Table 10, batch binding): 92% | Human IgG2 elu pH 8.5 (% of Total Load) (human IgG2; Table 10): 54% | Human IgG2 elu pH 4.0 (% of Total Load) (human IgG2; Table 10): 63% | hIgG2 elution pH 2.5 (% of Total Load) (human IgG2; Table 13): 71% | hIgG2 elution pH 3.0 (% of Total Load) (human IgG2; Table 13): 73% | hIgG2 elution pH 3.5 (% of Total Load) (human IgG2; Table 13): 63% | hIgG2 elution pH 4.5 (% of Total Load) (human IgG2; Table 13): 39% | hIgG2 elution pH 5.5 (% of Total Load) (human IgG2; Table 13): 1% | hIgG2 elution pH 9.0 (% of Total Load) (human IgG2; Table 13): 60% | hIgG2 elution pH 9.5 (% of Total Load) (human IgG2; Table 13): 67% | % IgG Capture - Batch Binding, Human IgG1 (human IgG1): 91% | Human IgG1 bdg % (% of Total Load) (human IgG1; Table 10, batch binding): 91% | Human IgG1 elu pH 8.5 (% of Total Load) (human IgG1; Table 10): 63% | Human IgG1 elu pH 4.0 (% of Total Load) (human IgG1; Table 10): 51% | hIgG1 elution pH 2.5 (% of Total Load) (human IgG1): 65% | hIgG1 elution pH 3.0 (% of Total Load) (human IgG1): 69% | hIgG1 elution pH 3.5 (% of Total Load) (human IgG1): 69% | hIgG1 elution pH 4.5 (% of Total Load) (human IgG1): 37% | hIgG1 elution pH 5.5 (% of Total Load) (human IgG1): 1% | hIgG1 elution pH 9.0 (% of Total Load) (human IgG1): 65% | hIgG1 elution pH 9.5 (% of Total Load) (human IgG1): 68% | % IgG Capture - Batch Binding, Goat IgG (goat IgG): 0% | % IgG Capture - Batch Binding, Human IgG (human IgG): 84% | % IgG Capture - Batch Binding, Bovine IgG (bovine IgG): 0% | % IgG Capture - Batch Binding, Human IgG3 (IgG3): 0% | Human IgG3 bdg % (% of Total Load) (IgG3; Table 10, batch binding): 3% | Human IgG3 elu pH 8.5 (% of Total Load) (IgG3; Table 10, elution 0.1 M sodium bicarbonate buffer, pH 8.5): 0% | Human IgG3 elu pH 4.0 (% of Total Load) (IgG3; Table 10): 0% | hIgG3 elution pH 2.5 (% of Total Load) (IgG3; Table 13): 0% | hIgG3 elution pH 3.0 (% of Total Load) (IgG3; Table 13): 0% | hIgG3 elution pH 3.5 (% of Total Load) (IgG3; Table 13): 0% | hIgG3 elution pH 4.5 (% of Total Load) (IgG3; Table 13): 0% | hIgG3 elution pH 5.5 (% of Total Load) (IgG3; Table 13): 0% | hIgG3 elution pH 9.0 (% of Total Load) (IgG3; Table 13): 0% | hIgG3 elution pH 9.5 (% of Total Load) (IgG3; Table 13): 0%
Compound: CC[C@H](C)[C@@H]1NC(=O)[C@H](CC(C)C)NC(=O)[C@H](CCC(=O)O)NC(=O)CNC(=O)[C@H](Cc2c[nH]c3ccccc23)NC(=O)[C@H]([C@@H](C)O)NC(=O)[C@H]([C@@H](C)O)NC(=O)[C@H](Cc2ccc(O)cc2)NC(=O)[C@H](C(C)C)NC(=O)[C@@H](NC(=O)[C@H](CCSC)NC(=O)[C@H](Cc2c[nH]cn2)NC(=O)[C@H](CC(=O)O)NC(=O)[C@H](CC(=O)O)NC(=O)CNC(C)=O)CSSC[C@@H](C(=O)N[C@@H](CC(=O)O)C(=O)N[C@@H](CC(N)=O)C(=O)N[C@@H](Cc2c[nH]cn2)C(=O)N[C@@H](CCC(=O)O)C(=O)N2CCC[C@H]2C(=O)NCC(=O)N2CCC[C@H]2C(=O)N[C@@H](CCC(=O)O)C(=O)NCC(=O)NCC(=O)NCC(=O)N[C@@H](CCCCN)C(N)=O)NC(=O)[C@H](Cc2c[nH]c3ccccc23)NC1=O [DX249] (Ac-GDDHMCVYTTWGELIWCDNHEPGPEGGGK-NH2; disulfide 6-17)

% IgG Capture - Batch Binding, Human IgG4 (IgG4): 33% | Human IgG4 elu pH 8.5 (% of Total Load) (IgG4; Table 10): 22% | hIgG4 elution pH 2.5 (% of Total Load) (IgG4): 49% | hIgG4 elution pH 3.0 (% of Total Load) (IgG4): 49% | hIgG4 elution pH 3.5 (% of Total Load) (IgG4): 53% | hIgG4 elution pH 4.5 (% of Total Load) (IgG4): 23% | hIgG4 elution pH 5.5 (% of Total Load) (IgG4): 4% | hIgG4 elution pH 9.0 (% of Total Load) (IgG4): 45% | hIgG4 elution pH 9.5 (% of Total Load) (IgG4): 62% | Batch Binding (% Capture of Total Load) hIgG4 (IgG4; peptide immobilized on NHS activated sepharose 4 fast flow, target ligand density 2.0 μmole/ml, batch filterplate, hIgG4): 58% | % IgG Capture - Batch Binding, Mouse IgG (mouse IgG; Table 11, unfractionated IgG): 2% | % IgG Capture - Batch Binding, Mouse IgG (mouse IgG; [1]): 2% | Human IgG2 elu pH 8.5 (% of Total Load) (human IgG2; Table 10): 32% | Human IgG2 elu pH 4.0 (% of Total Load) (human IgG2; Table 10): 12% | hIgG2 elution pH 2.5 (% of Total Load) (human IgG2; Table 13): 78% | hIgG2 elution pH 3.0 (% of Total Load) (human IgG2; Table 13): 69% | hIgG2 elution pH 3.5 (% of Total Load) (human IgG2; Table 13): 55% | hIgG2 elution pH 4.5 (% of Total Load) (human IgG2; Table 13): 31% | hIgG2 elution pH 9.0 (% of Total Load) (human IgG2; Table 13): 42% | hIgG2 elution pH 9.5 (% of Total Load) (human IgG2; Table 13): 47% | Batch Binding (% Capture of Total Load) hIgG2 (human IgG2; peptide immobilized on NHS activated sepharose 4 fast flow, target ligand density 2.0 μmole/ml, batch filterplate, hIgG2): 80% | % IgG Capture - Batch Binding, Human IgG1 (human IgG1): 58% | Human IgG1 elu pH 8.5 (% of Total Load) (human IgG1; Table 10): 44% | Human IgG1 elu pH 4.0 (% of Total Load) (human IgG1; Table 10): 14% | hIgG1 elution pH 2.5 (% of Total Load) (human IgG1): 78% | hIgG1 elution pH 3.0 (% of Total Load) (human IgG1): 75% | hIgG1 elution pH 3.5 (% of Total Load) (human IgG1): 54% | hIgG1 elution pH 4.5 (% of Total Load) (human IgG1): 55% | hIgG1 elution pH 5.5 (% of Total Load) (human IgG1): 8% | hIgG1 elution pH 9.0 (% of Total Load) (human IgG1): 44% | hIgG1 elution pH 9.5 (% of Total Load) (human IgG1): 45% | Batch Binding (% Capture of Total Load) hIgG1 (human IgG1; peptide immobilized on NHS activated sepharose 4 fast flow, target ligand density 2.0 μmole/ml, batch filterplate, hIgG1): 88% | % IgG Capture - Batch Binding, Human IgG (human IgG; Table 11, unfractionated IgG): 54% | % IgG Capture - Batch Binding, Human IgG (human IgG; [1]): 71% | Batch Binding (% Capture of Total Load) hIgG (human IgG; peptide immobilized on NHS activated sepharose 4 fast flow, target ligand density 2.0 μmole/ml, batch filterplate, hIgG): 79% | % IgG Capture - Batch Binding, Human IgG3 (IgG3): 7% | Human IgG3 elu pH 4.0 (% of Total Load) (IgG3; Table 10): 5%
Compound: Ac-GDRRACSRDWSGALVWCAGHEPGPEGGGK-NH2 (not fully specified (bridges); printed as Ac-GDRRACSRDWSGALVWCAGHEPGPEGGGK-NH2; cysteine pairing not given here) [DX253]

— patent publication US20030199671A1, “Binding molecules for Fc-region polypeptides” (priority 2001, published 2003)
